Assay results from patent EP4748837A1, “AROMATIC AMIDE DERIVATIVE, AND PREPARATION METHOD THEREFOR AND USE THEREOF” (Zhejiang Hisun Pharmaceutical Co., Ltd., priority 2023, dated 2025).

Tests used:
[1] = tested on: OVCAR-3 cells; assay: Inhibition of OVCAR-3 cell proliferation (CellTiter-Glo cell viability); assay type: cell-based; details: Homo sapiens; OVCAR-3 cells (TP53 R248Q mutation), 72 hours culture with compound; read-out: IC50
Summary of the method: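 OVCAR-3 cells (TP53 R248Q) in RPMI 1640 with 10% FBS were seeded at 1000 cells/well, grown overnight, then exposed to compound (final 1000 nM–0.015 nM) for 72 h at 37°C, 5% CO2. Viability was read by CellTiter-Glo luminescence. IC50 came from nonlinear regression of inhibition relative to 0.3% DMSO control.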

[2] = tested on: HT-29 cells; assay: Inhibition of HT-29 cell proliferation (CellTiter-Glo cell viability); assay type: cell-based; details: Homo sapiens; HT-29 cells (TP53 R273H mutation), 120 hours culture with compound; read-out: IC50
Summary of the method: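 HT-29 cells (TP53 R273H) in McCOY's 5A with 10% FBS, seeded 1000 cells/well overnight, then exposed to compound at 1000 nM–0.015 nM final for 120 hours at 37°C. Viability by CellTiter-Glo luminescence versus 0.3% DMSO control; IC50 by nonlinear regression of log concentration–inhibition.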

[3] = tested on: OVCAR-3 human ovarian adenocarcinoma tumor mass; assay: Pharmacodynamic testing in subcutaneous OVCAR-3 xenograft model; assay type: in vivo, BALB/c nude mice; details: for inhibitory effect on tumor growth (in words): 8 mg/kg, compared with the solvent control group and AMG650; for TGI% / Relative tumor volume (x±S) / Tumor volume (x±S): 35 days after administration, 8 mg/kg po QD, BALB/c nude mice; for Relative tumor volume (x±S) / Tumor volume (x±S): mean value ± standard error; for Tumor volume (x±S): in mm³ (unit assumed)
Description: Anti-tumor effects and Safeties of the Compounds 47 and 53 of the present invention in a BALB/c nude mouse animal model subjected to subcutaneous xenotransplantation of OVCAR-3 human ovarian adenocarcinoma tumor mass were evaluated.
BALB/c; nude mice, female, 6-7 weeks old, purchased from Jiangsu Gempharmatech Biotechnology Co., Ltd.
Mice in a solvent control group were given DMA: CrEL: 5%GS=10: 10: 80 (v: v: v). AMG650: a proper amount of AMG-650 was weigned, proper amounts of DMA, CrEL and 5% GS were added in sequence, and the mixture was well mixed by ultrasonic vortex to prepare 0.8 mg/mL drug preparations respectively, wherein DMA: CrEL : 5% GS=10: 10: 80 (v: v: v).
Compound 47: a proper amount of Compound 47 was added with proper amounts of DMA, CrEL and 5% GS in sequence, and evenly mixed by ultrasonic vortex to prepare 0.8 mg/mL drug preparations respectively, wherein DMA, CrEL and 5% GS=10: 10: 80 (v: v: v).
Compound 53: a proper amount of Compound 53 was weighed, proper amounts of DMA, CrEL and 5% GS were added in sequence, and the mixture was well mixed by ultrasonic vortex to prepare 0.8 mg/mL drug preparations respectively, wherein DMA: CrEL : 5% GS=10: 10: 80 (v: v: v).
An appropriate OVCAR-3 tumor-bearing animal was selected, and a 1 mm×1 mm×1 mm OVCAR-3 tumor mass was acquired aseptically and placed into normal saline for later use, which was used for subcutaneous tumor inoculation in a right side of back of the BALB/c nude mice.
About 1 mm×1 mm×1 mm OVCAR-3 tumor mass was subcutaneously inoculated in the right side of back of the female BALB/c nude mice. When an average tumor volume reached about 100-250 mm^3, the mice were randomly grouped based on tumor size, with 6 mice in each group.
Animals in each group were given the test compound once per day according to an animal weight at a fixed time every day by oral administration (po), the animals started to be administered with the test compound for the first time on the day of grouping for 35 consecutive days, and the animal weight was recorded every day.
The 1st group (G1) was a solvent control group; and
The 2nd-4th groups […] were orally administered with AMG-650, Compound 47 and Compound 53 at an administration dosage of 8 mg/kg once per day (QD).

| Structure (SMILES) | IC50 [1] [nM] | IC50 [2] [nM] | inhibitory effect on tumor growth (in words) [3] | TGI% [3] [%] | Relative tumor volume (x±S) [3] | Tumor volume (x±S) [3] |
| --- | --- | --- | --- | --- | --- | --- |
| CCS(=O)(=O)Nc1ccc(C(=O)Nc2ccc(-c3ncn(C)n3)c(OCC(F)(F)F)c2)c(N2CCC3(CC2)CC3)c1 [Example 47, 4-(ethylsulfonamido)-N-(4-(1-methyl-1H-1,2,4-triazol-3-yl)-3-(2,2,2-trifluoroethoxy)pheny 1)-2-(6-azaspiro[2.5]octan-6-yl)benzamide] | 5.8 | 0.54 | more significant inhibitory effect on tumor growth | 95.5 | 0.22±0.11 | 40±20 |
| CCS(=O)(=O)Nc1ccc(C(=O)Nc2ccc(-c3ncccn3)c(OCC(F)(F)F)c2)c(N2CCC3(CC2)CC3)c1 [Example 53, 4-(ethylsulfonamido)-N-(4-(pyrimidin-2-yl)-3-(2,2,2-trifluoroethoxy)phenyl)-2-(6-azaspiro[2.5]octan-6-yl)benzamide] | 9.5 | 6.8 | more significant inhibitory effect on tumor growth | 98.0 | 0.10±0.04 | 21±9 |
